Values quoted from earlier work, collected in US20090227666A1, “Enhancing Disease Resistance In An Animal” (Hill's Pet Nutrition, Inc., priority 2007, published 2009).

Tested on: CD8+ T cell population
Settings: moderate (101 mg/kg of food) or high (447 mg/kg of food) versus low-normal (17 mg/kg of food)

CC(=O)Oc1c(C)c(C)c2c(c1C)CCC(C)(CCC[C@H](C)CCC[C@H](C)CCCC(C)C)O2 (stereo partly drawn) [α-tocopheryl acetate]
percentages of CD8+ cells: increased percentages of CD8+ cells
